Two compounds from patent publication US6645918B1, “N-([1,2,4]triazoloazinyl)thiophenesulfonamide compounds and their use as herbicides” (Dow AgroSciences LLC, priority 2000, dated 2003) can be followed below.

Holding throughout (assay type): in vivo
Assay [1] deals with wild poinsettia (Euphorbia heterophylla). Nature of the assay: Preemergence herbicidal activity, wild poinsettia. The settings on record: 8.8 g/Ha, soil spray, visual after 3 weeks; 0 no injury, 100 complete kill or no germination. How it is done:
(§1) The soil matrix was contained in plastic pots with a surface area of 161 square centimeters. When required to ensure good germination and healthy plants, a fungicide treatment and/or other chemical or physical treatment was applied. A weighed amount, determined by the highest rate to be tested, of each test compound was placed in a 20 mL glass vial and was dissolved in 8 mL of a 97:3 v/v (volume/volume) mixture of acetone and dimethyl sulfoxide to obtain concentrated stock solutions. […] The stock solutions obtained were diluted with a 99.9:0.1 mixture of water and Tween® 155 surfactant (ethoxylated sorbitan fatty acid ester) to obtain application solutions of known concentration. The solutions containing the highest concentration to be tested were prepared by diluting 4 mL aliquots of the stock solution with 8.5 mL of the mixture and lower concentrations were prepared by dilution of appropriate smaller portions of the stock solution. A 2.5 mL aliquot of each solution of known concentration was sprayed evenly onto the soil of each seeded pot using a Cornwall 5.0 mL glass syringe fitted with a TeeJet TN-3 hollow cone nozzle to obtain thorough coverage of the soil in each pot. Control pots were sprayed in the same manner with the aqueous mixture. A highest application rate of 4.48 kg/ha is achieved when 50 mg of test compound is employed. The treated pots and control pots were placed in a greenhouse with an approximately 15 hr photoperiod which was maintained at about 23-29° C. during the day and 22-28° C. during the night. Nutrients and water were added on a regular basis and supplemental lighting was provided with overhead metal halide 1000 Watt lamps as necessary. The water was added by top-irrigation. After 3 weeks the condition of the test plants that germinated and grew as compared with that of the untreated plants that germinated and grew was determined visually and scored on a scale of 0 to 100 percent where 0 corresponds to no injury and 100 corresponds to complete kill or no germination.

Assay [2] relates to chickweed (Stellaria media). Nature of the assay: Postemergence herbicidal activity, chickweed. Particulars: foliar spray, visual after 2 weeks, 0 no injury, 100 complete kill. How it is done: (§2) Seeds of the desired test plant species were planted in Grace-Sierra MetroMix® 306 planting mixture, which typically has a pH of 6.0 to 6.8 and an organic matter content of about 30 percent, in plastic pots with a surface area of 64 square centimeters. When required to ensure good germination and healthy plants, a fungicide treatment and/or other chemical or physical treatment was applied. The plants were grown for 7-21 days in a greenhouse with an approximately 15 hr photoperiod which was maintained at about 23-29° C. during the day and 22-28° C. during the night. Nutrients and water were added on a regular basis and supplemental lighting was provided with overhead metal halide 1000 Watt lamps as necessary. The plants were employed for testing when they reached the first or second true leaf stage. A weighed amount of each test compound, determined by the highest rate to be tested, was placed in a 20 mL glass vial and was dissolved in 4 mL of a 97:3 v/v (volume/volume) mixture of acetone and dimethyl sulfoxide to obtain concentrated stock solutions. […] The concentrated stock solutions obtained were diluted with an aqueous mixture containing acetone, water, iso-propyl alcohol, dimethyl sulfoxide, Atplus 411F crop oil concentrate, and Triton X-155 surfactant (methylenebisdiamyl phenoxy polyethoxy ethanol) in a 48.5:39:10:1.5:1.0:0.02 v/v ratio to obtain spray solutions of known concentration. The solutions containing the highest concentration to be tested were prepared by diluting 2 mL aliquots of the stock solution with 13 mL of the mixture and lower concentrations were prepared by dilution of appropriate smaller portions of the stock solution. Approximately 1.5 mL aliquots of each solution of known concentration were sprayed evenly onto each of the test plant pots using a DeVilbiss atomizer driven by compressed air pressure of 2 to 4 psi (140 to 280 kilopascals) to obtain thorough coverage of each plant. Control plants were sprayed in the same manner with the aqueous mixture. In this test an application rate of 1 ppm results in the application of approximately 1 g/ha. The treated plants and control plants were placed in a greenhouse as described above and watered by sub-irrigation to prevent wash-off of the test compounds. After 2 weeks the condition of the test plants as compared with that of the untreated plants was determined visually and scored on a scale of 0 to 100 percent where 0 corresponds to no injury and 100 corresponds to complete kill.

Assay [3] concerns lambsquarters (Chenopodium album). The experiment in a line: Postemergence herbicidal activity, lambsquarters. Particulars: foliar spray, visual after 2 weeks, 0 no injury, 100 complete kill. How it is done: as §2
For assay [4], the system named is pigweed (Amaranthus retroflexus). The experiment in a line: Postemergence herbicidal activity, pigweed. The settings on record: foliar spray, visual after 2 weeks, 0 no injury, 100 complete kill. How it is done:
as §2

The subject of assay [5] is wild oats (Avena fatua). The experiment in a line: Preemergence herbicidal activity, wild oats. The settings on record: 8.8 g/Ha, soil spray, visual after 3 weeks; 0 no injury, 100 complete kill or no germination. How it is done: as §1
The subject of assay [6] is cocklebur (Xanthium strumarium). The experiment in a line: Postemergence herbicidal activity, cocklebur. Particulars: foliar spray, visual after 2 weeks, 0 no injury, 100 complete kill. How it is done:
as §2

Assay [7] deals with lambsquarters (Chenopodium album). Nature of the assay: Preemergence herbicidal activity, lambsquarters. Particulars: 8.8 g/Ha, soil spray, visual after 3 weeks; 0 no injury, 100 complete kill or no germination. On the procedure: as §1
For assay [8], the system named is blackgrass (Alopecurus myosuroides). The experiment in a line: Postemergence herbicidal activity, blackgrass. Particulars: foliar spray, visual after 2 weeks, 0 no injury, 100 complete kill. On the procedure:
as §2

Assay [9] relates to wild oats (Avena fatua). Nature of the assay: Postemergence herbicidal activity, wild oats. Particulars: foliar spray, visual after 2 weeks, 0 no injury, 100 complete kill. How it is done:
as §2

In assay [10] the test system is giant foxtail (Setaria faberi). The experiment in a line: Preemergence herbicidal activity, giant foxtail. Particulars: 8.8 g/Ha, soil spray, visual after 3 weeks; 0 no injury, 100 complete kill or no germination. On the procedure: as §1
Assay [11] concerns blackgrass (Alopecurus myosuroides). The experiment in a line: Preemergence herbicidal activity, blackgrass. Particulars: 8.8 g/Ha, soil spray, visual after 3 weeks; 0 no injury, 100 complete kill or no germination. On the procedure: as §1
In assay [12] the test system is pigweed (Amaranthus retroflexus). Nature of the assay: Preemergence herbicidal activity, pigweed. Particulars: 8.8 g/Ha, soil spray, visual after 3 weeks; 0 no injury, 100 complete kill or no germination. How it is done: as §1
The subject of assay [13] is morningglory (Ipomoea hederacea). The experiment in a line: Preemergence herbicidal activity, morningglory. The settings on record: 8.8 g/Ha, soil spray, visual after 3 weeks; 0 no injury, 100 complete kill or no germination. On the procedure: as §1
The subject of assay [14] is viola (Viola tricolor). Nature of the assay: Postemergence herbicidal activity, viola. Particulars: foliar spray, visual after 2 weeks, 0 no injury, 100 complete kill. On the procedure: as §2
For assay [15], the system named is crabgrass (Digitaria sanguinalis). The experiment in a line: Preemergence herbicidal activity, crabgrass. Particulars: 8.8 g/Ha, soil spray, visual after 3 weeks; 0 no injury, 100 complete kill or no germination. How it is done:
as §1

The subject of assay [16] is barnyardgrass (Echinochloa crus-galli). The experiment in a line: Preemergence herbicidal activity, barnyardgrass. Particulars: 8.8 g/Ha, soil spray, visual after 3 weeks; 0 no injury, 100 complete kill or no germination. On the procedure: as §1
For assay [17], the system named is velvetleaf (Abutilion theophrasti). The experiment in a line: Postemergence herbicidal activity, velvetleaf. Particulars: foliar spray, visual after 2 weeks, 0 no injury, 100 complete kill. How it is done:
as §2

Assay [18] relates to morningglory (Ipomoea hederacea). Nature of the assay: Postemergence herbicidal activity, morningglory. The settings on record: foliar spray, visual after 2 weeks, 0 no injury, 100 complete kill. On the procedure:
as §2

In assay [19] the test system is giant foxtail (Setaria faberi). Nature of the assay: Postemergence herbicidal activity, giant foxtail. The settings on record: foliar spray, visual after 2 weeks, 0 no injury, 100 complete kill. How it is done: as §2
In assay [20] the test system is wild buckwheat (Polygonum convolvulus). Nature of the assay: Postemergence herbicidal activity, wild buckwheat. Particulars: foliar spray, visual after 2 weeks, 0 no injury, 100 complete kill. On the procedure: as §2
For assay [21], the system named is velvetleaf (Abutilion theophrasti). The experiment in a line: Preemergence herbicidal activity, velvetleaf. Particulars: 8.8 g/Ha, soil spray, visual after 3 weeks; 0 no injury, 100 complete kill or no germination. How it is done:
as §1

The test system of assay [22] is Rox orange sorghum (Sorghum bicolor). Nature of the assay: Preemergence herbicidal activity, Rox orange sorghum. The settings on record: 8.8 g/Ha, soil spray, visual after 3 weeks; 0 no injury, 100 complete kill or no germination. On the procedure:
as §1

For assay [23] the test system is unchanged. Nature of the assay: Postemergence herbicidal activity, Rox orange sorghum. The settings on record: foliar spray, visual after 2 weeks, 0 no injury, 100 complete kill. On the procedure:
as §2

Consider `COc1csc(C(F)(F)F)c1S(=O)(=O)Nc1nc2c(OC)cnc(OC)n2n1` [Compound 10], for which the “EPHHL preemergence injury score 0-100” value in [1] came out at 75%. In assay [2] (15.6 ppm), the “STEME postemergence injury score 0-100” value is given as 98%. Besides, in assay [3] (15.6 ppm), the “CHEAL postemergence injury score 0-100” value is 70%. For the same compound, the “AMARE postemergence injury score 0-100” value in [4] (15.6 ppm) turned out to be 95%. In addition, the “AVEFA preemergence injury score 0-100” value in assay [5] is listed as 90%. Further, in [6] (15.6 ppm), the “XANST postemergence injury score 0-100” value is listed as 100%. Moreover, the “CHEAL preemergence injury score 0-100” value in assay [7] was determined as 95%. In addition, the “ALOMY postemergence injury score 0-100” value in assay [8] (15.6 ppm) was determined as 50%. For the same compound, the “AVEFA postemergence injury score 0-100” value in assay [9] (15.6 ppm) is listed as 80%. Also, the “SETFA preemergence injury score 0-100” value in [10] is reported as 90%. In [11], the “ALOMY preemergence injury score 0-100” value came out at 90%. Further, in assay [12], the “AMARE preemergence injury score 0-100” value came out at 100%. The “IPOHE preemergence injury score 0-100” value in [13] is 80%. In assay [14] (15.6 ppm), the “VIOTR postemergence injury score 0-100” value was determined as 90%. In addition, the “DIGSA preemergence injury score 0-100” value in assay [15] is 70%. For the same compound, the “ECHCG preemergence injury score 0-100” value in assay [16] worked out at 90%. The “ABUTH postemergence injury score 0-100” value in assay [17] (15.6 ppm) is listed as 90%. Further, the “IPOHE postemergence injury score 0-100” value in [18] (15.6 ppm) is 80%. For the same compound, in assay [19] (15.6 ppm), the “SETFA postemergence injury score 0-100” value was found to be 90%. In [20] (15.6 ppm), the “POLCO postemergence injury score 0-100” value is reported as 70%. Moreover, the “ABUTH preemergence injury score 0-100” value in assay [21] is listed as 70%. Also, the “SORBI preemergence injury score 0-100” value in [22] came out at 100%. For the same compound, the “SORBI postemergence injury score 0-100” value in [23] (15.6 ppm) is 80%.
Regarding `COc1ccsc1S(=O)(=O)Nc1nc2c(Cl)cnc(OC)n2n1` [Compound 2], in [1], the “EPHHL preemergence injury score 0-100” value was found to be 90%. Moreover, the “STEME postemergence injury score 0-100” value in [2] (7.8 ppm) was 98%. Also, the “CHEAL postemergence injury score 0-100” value in [3] (7.8 ppm) was 90%. Besides, the “AMARE postemergence injury score 0-100” value in assay [4] (7.8 ppm) was 98%. Moreover, the “AVEFA preemergence injury score 0-100” value in assay [5] was 100%. In addition, in assay [6] (7.8 ppm), the “XANST postemergence injury score 0-100” value came out at 60%. Also, the “CHEAL preemergence injury score 0-100” value in [7] amounted to 98%. Also, in [8] (7.8 ppm), the “ALOMY postemergence injury score 0-100” value came out at 70%. Moreover, the “AVEFA postemergence injury score 0-100” value in [9] (7.8 ppm) was 90%. Also, the “SETFA preemergence injury score 0-100” value in assay [10] is reported as 100%. Also, in assay [11], the “ALOMY preemergence injury score 0-100” value was determined as 95%. Besides, in assay [12], the “AMARE preemergence injury score 0-100” value is 95%. Also, the “IPOHE preemergence injury score 0-100” value in assay [13] is 80%. In addition, in assay [14] (7.8 ppm), the “VIOTR postemergence injury score 0-100” value stood at 95%. In assay [15], the “DIGSA preemergence injury score 0-100” value is 100%. Moreover, in [16], the “ECHCG preemergence injury score 0-100” value was 75%. Further, the “ABUTH postemergence injury score 0-100” value in [17] (7.8 ppm) was 95%. Also, the “IPOHE postemergence injury score 0-100” value in assay [18] (7.8 ppm) is listed as 85%. Moreover, in [19] (7.8 ppm), the “SETFA postemergence injury score 0-100” value is reported as 98%. For the same compound, the “POLCO postemergence injury score 0-100” value in [20] (7.8 ppm) amounted to 90%. Further, in assay [21], the “ABUTH preemergence injury score 0-100” value was 75%. Also, the “SORBI preemergence injury score 0-100” value in assay [22] was 100%. For the same compound, in [23] (7.8 ppm), the “SORBI postemergence injury score 0-100” value stood at 98%.
